Assay results reported in patent publication EP4623908A1, “USE OF (-)-EPIGALLOCATECHIN GALLATE COMPOUND” (CF Pharmtech, Inc., priority 2022, dated 2024).

Tests used:
[1] = tested on: TGFβ receptor 1 and 2 (TGFβR1/2) kinases; conditions: cited from earlier work
[2] = Plasma pharmacokinetics in rats after tracheal nebulization, intravenous injection and oral gavage (Example 1); assay type: in vivo, SD rats; conditions: for AUC(0-t) / Cmax: male, Sprague-Dawley; for AUC(0-t) / Cmax / F: rat plasma
From the text: Example 1: Plasma pharmacokinetics study in rats after administration of EGCG via tracheal nebulization, intravenous injection, and oral gavage.
Materials: EGCG, content > 98wt%.
Preparation of tracheal nebulization solution: Accurately weigh the EGCG compound and dissolve it in Solvent 1 to prepare a clear and transparent drug solution. Solvent 1 is composed of purified water, citric acid, and sodium citrate.
Preparation of intravenous injection and oral gavage solutions: Accurately weigh the EGCG compound and dissolve it in saline.
Animals: Clean-grade male SD rats, provided by Qinglongshan Animal Breeding Farm in Jiangning District, Nanjing City, with a body weight range of 160-200g.
Tracheal Nebulization (inh): Rats in each tracheal nebulization group were anesthetized with isoflurane and fixed in a restraint device. An anesthetic laryngoscope was used to press the animal's tongue root and expose the glottis. A micro liquid nebulizer needle (blunt tip) filled with a specific amount of EGCG solution, was gently inserted into the trachea. The drug was nebulized into the lungs, the needle was quickly withdrawn, and the rat was removed from the holder, with its head rotated left and right to ensure even distribution of the drug across the lung lobes. The nebulized inhalation doses were 1.6 mg/kg, 3.2 mg/kg, and 6.4 mg/kg, with 5 rats in each dose group.
Oral Gavage (po): The dosage for each rat was determined based on body weight. An appropriate size syringe and gavage tube were used to administer the drug orally. The dose was 60 mg/kg, with 5 rats.
Intravenous Injection (iv): EGCG was administered via tail vein injection. The dose was 3.2 mg/kg, with 5 rats in total.
Blood samples were collected from the experimental groups via the orbital venous plexus before administration (0 min) and at 5 min, 15 min, 30 min, 1 h, 2 h, 4 h, and 6 h after administration (8 sampling points in total), with approximately 50-100 µL of whole blood collected at each point.
After collection at the specified time points, blood samples were placed in heparinized tubes, centrifuged, and plasma was separated into centrifuge tubes, then stored at -70°C for subsequent analysis.
Mass spectrometry conditions: Determined using UPLC-MS/MS. Chromatographic conditions: Determined using. Pharmacokinetic parameters were calculated using the WinNonlin pharmacokinetic software with statistical moment methods for each animal.

[3] = biological target: T1, lysyl oxidase-like protein-2 (LOXL2) (Homo sapiens, UniProt Q9Y4K0); conditions: cited from earlier work
T1 sequence (Q9Y4K0 26-774): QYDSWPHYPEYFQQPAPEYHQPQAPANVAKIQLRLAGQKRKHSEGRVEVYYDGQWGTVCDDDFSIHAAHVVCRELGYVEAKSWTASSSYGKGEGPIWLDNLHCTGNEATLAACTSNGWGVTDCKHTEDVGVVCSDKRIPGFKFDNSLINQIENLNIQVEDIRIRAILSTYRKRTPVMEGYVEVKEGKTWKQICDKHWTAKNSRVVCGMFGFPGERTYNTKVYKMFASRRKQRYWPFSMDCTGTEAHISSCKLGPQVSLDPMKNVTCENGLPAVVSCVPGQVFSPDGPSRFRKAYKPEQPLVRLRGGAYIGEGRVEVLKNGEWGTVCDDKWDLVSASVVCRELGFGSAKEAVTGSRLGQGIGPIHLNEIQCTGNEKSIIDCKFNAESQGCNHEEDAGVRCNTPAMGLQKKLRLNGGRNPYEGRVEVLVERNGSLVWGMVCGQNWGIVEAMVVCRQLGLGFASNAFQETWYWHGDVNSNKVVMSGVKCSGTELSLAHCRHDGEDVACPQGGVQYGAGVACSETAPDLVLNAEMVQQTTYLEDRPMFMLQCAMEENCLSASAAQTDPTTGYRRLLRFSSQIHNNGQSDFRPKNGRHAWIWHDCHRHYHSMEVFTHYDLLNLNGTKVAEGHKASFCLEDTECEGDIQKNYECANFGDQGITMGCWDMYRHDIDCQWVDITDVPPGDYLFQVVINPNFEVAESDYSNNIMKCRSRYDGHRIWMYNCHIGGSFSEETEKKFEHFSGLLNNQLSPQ

[4] = Drug concentration in rat plasma and lungs after tracheal nebulization and oral gavage (Example 2); assay type: in vivo, rats; conditions: for Cmax / AUC(0-t): plasma; for AUC(0-t): read-out: Plasma AUC0-t
Method: As shown in Example 1, after inhalation (such as tracheal nebulization) administration of 1.6 mg/kg EGCG and oral gavage administration of 60 mg/kg EGCG, the AUC0-t in rat plasma were similar. Based on this, this example investigates the changes in drug concentration in rat plasma and lungs over time after a single lower dose of tracheal nebulization (0.8 mg/kg) compared to oral gavage (60 mg/kg) of EGCG. Both the tracheal nebulization and oral gavage groups consist of 5 rats each.
2.1 Blood Sampling Method: Blood was taken via femoral artery. Samples were taken at 30 minutes, 2 hours, 4 hours, and 6 hours post-administration (4 sampling points). After blood collection, 0.9 wt% physiological saline was used to lavage the lungs twice, then the entire lung was removed, dried with filter paper, and stored at -20°C until further analysis.
2.2 Plasma Sample Processing Method: 1 mL of plasma was mixed with 3 mL of ethyl acetate solution, vortexed, centrifuged, and the supernatant was evaporated to dryness. The residue was reconstituted with a reconstitution solution, vortexed, and 100 µL was used for analysis of plasma drug concentration.
2.3 Lung Tissue Sample Processing Method: Lung tissue samples were weighed, and 3 times the volume of physiological saline (w:v) was added to homogenize. 1 mL of the homogenate was mixed with 3 mL of ethyl acetate solution, vortexed, centrifuged, and the supernatant was evaporated to dryness. The residue was reconstituted with a reconstitution solution, vortexed, and 100 µL was used for analysis of lung drug concentration.

[5] = inhaled, tracheal nebulization (inh) 1.6 mg/kg
[6] = inhaled, tracheal nebulization (inh) 3.2 mg/kg
[7] = inhaled, tracheal nebulization (inh) 6.4 mg/kg
[8] = intravenous injection (iv) 3.2 mg/kg
[9] = inhaled, tracheal nebulization (inh.0.8mg/kg)
[10] = tracheal nebulization (inh.0.8mg/kg)

O=C(O[C@@H]1Cc2c(O)cc(O)cc2O[C@@H]1c1cc(O)c(O)c(O)c1)c1cc(O)c(O)c(O)c1 [EGCG, (-)-Epigallocatechin gallate]
inhibition of TGFβR1/2 kinases [1]: effectively inhibit | AUC(0-t) [2, 5]: 409 ± 75.6 ng·h/mL | Cmax [2, 5]: 298 ± 91.9 ng/mL | AUC(0-t) [2, 6]: 1120 ± 220 ng·h/mL | Cmax [2, 6]: 1120 ± 127 ng/mL | AUC(0-t) [2, 7]: 1860 ± 595 ng·h/mL | Cmax [2, 7]: 2020 ± 658 ng/mL | AUC(0-t) [2, 8]: 1680 ± 614 ng·h/mL | Cmax [2, 8]: 1920 ± 789 ng/mL | AUC(0-t) ([2]; oral gavage (po) 60 mg/kg): 372 ± 167 ng·h/mL | Cmax ([2]; oral gavage (po) 60 mg/kg): 118 ± 73 ng/mL | dose ratio between oral gavage and inhalation when achieving the same plasma exposure level ([2]; po 60 mg/kg: inh 1.6 mg/kg, rat): 37.5 times | F ([2]; oral gavage (po) 60 mg/kg): 1.2±0.0% | F ([2]; tracheal nebulization (inh) 1.6 mg/kg): 48.7±9.0% | F ([2]; tracheal nebulization (inh) 3.2 mg/kg): 66.9±13.1% | F ([2]; tracheal nebulization (inh) 6.4 mg/kg): 55.3±17.7% | inhibition of LOXL2 [3]: effectively inhibit | Kp ([4]; lung and plasma, inhaled, after inhalation 0.8 mg/kg, read-out: drug concentration in the lungs relative to that in plasma (higher)): 100 | Lung AUC0-t ([4]; oral gavage (po. 60mg/kg)): 115 ng·h/mL | Lung Cmax ([4]; oral gavage (po. 60mg/kg)): 34.5 ng/mL | Cmax [4, 9]: 153 ng/mL | AUC(0-t) [4, 9]: 292 ng·h/mL | Cmax ([4]; oral gavage (po. 60mg/kg)): 46 ng/mL | AUC(0-t) ([4]; oral gavage (po. 60mg/kg)): 136 ng·h/mL | Lung AUC0-t [4, 10]: 30891 ng·h/mL | Lung Cmax [4, 10]: 12720 ng/mL
